Measured values published in patent publication US20140302568A1, “POLYOL OXIDASE” (NATIONAL UNIVERSITY CORPORATION KAGAWA UNIVERSITY, priority 2011, published 2014).

Assays:
[1] = tested on: polyol oxidase derived from Penicillium sp. KU-1; assay: Substrate specificity of the partially purified polyol oxidase (peroxidase method); format: biochemical; conditions: for Relative activity (%): substrate specificity, partially purified enzyme, relative to D-arabitol = 100
Protocol: As the measurement method for the oxidase activity, a peroxidase method was used. When a D-glucose oxidase is taken as an example, the principle of the peroxidase method is as follows.
In this method, the activity is measured by colorimetric determination of hydrogen peroxide generated by an oxidation reaction. When hydrogen peroxide generated by an oxidation reaction with a substrate is reacted with a peroxidase, an oxidation reaction of ABTS is catalyzed to generate oxidized ABTS. The oxidized ABTS develops a blue color, and therefore, by visual observation or measurement of absorbance at 420 nm, the oxidase activity can be detected. In the measurement of the activity, the crude extract solution obtained by extraction from the wheat bran culture medium was used. Further, as the control, a reaction solution in which water was added in place of the substrate was also prepared in the same manner. After a reaction was allowed to proceed at room temperature, whether or not the color was developed was confirmed by visual observation, and the crude extract solution added to the reaction solution in which the color was developed was determined to have an oxidase activity.
The measurement of the activity of the present enzyme was performed by measuring an increase in absorbance at 420 nm using the same peroxidase method as described above. The enzymatic reaction was initiated by adding D-mannitol, and the absorbance was measured over time for 10 minutes under the reaction conditions of 30° C. using a spectrophotometer U-2010 manufactured by Hitachi Co., Ltd. The reaction was performed by preparing the reaction solution so that the total amount thereof was 1 mL as shown in Table 11. “1 unit” was defined as the amount of the enzyme required to increase the absorbance at 420 nm by 1 for 1 minute.
Among the polyols used in the assay, the activity of the enzyme was high for D-arabitol, erythritol, D-mannitol, and D-sorbitol, which are listed in descending order of activity, and a high activity was not observed for the other polyols.

[2] = tested on: polyol oxidase of the A strain; assay: Screening for oxidase activity, crude extract of A strain (peroxidase method, visual colour development); format: biochemical, Penicillium sp. KU-1 (A strain); conditions: substrate 0.5 M, room temperature
Protocol: (§1) Isolated microbial cells were inoculated into 5 mL of PDB, followed by shaking incubation at 28° C. for 1 week. In a 200-mL Erlenmeyer flask, 6 g of wheat bran and 15 mL of water were added and mixed with each other, and the resulting mixture was sterilized in an autoclave and used as a wheat bran culture medium. To the thus prepared wheat bran culture medium, the liquid-cultured microbial cells were added together with the total amount of the culture solution, and the resulting mixture was incubated at 28° C. After two-week incubation, an extract solution was prepared by a method described below and used for the measurement of the oxidase activity.
(§2) To the wheat bran culture medium in which the microbial cells were grown, 20 mL of a 10 mM potassium phosphate buffer (pH 7.0) was added, and the cells were well immersed therein and left to stand on ice for 1 hour, and then, the mixture was squeezed with a gauze pad. Thereafter, centrifugation was performed at 4° C. and 12,000 rpm for 18 minutes to remove fine particles, and the resulting solution was used as a crude extract solution.
(§3) In primary screening, a sugar mixed solution and an amino acid mixed solution were used in consideration of efficiency. The crude extract solution in which the activity was detected by the primary screening was subjected to secondary screening using the respective substrates individually at 0.5 M, and the substrate was specified.
(§4) As the measurement method for the oxidase activity, a peroxidase method was used. […]
(§5) In this method, the activity is measured by colorimetric determination of hydrogen peroxide generated by an oxidation reaction. […] The oxidized ABTS develops a blue color, and therefore, by visual observation or measurement of absorbance at 420 nm, the oxidase activity can be detected. […] After a reaction was allowed to proceed at room temperature, whether or not the color was developed was confirmed by visual observation, and the crude extract solution added to the reaction solution in which the color was developed was determined to have an oxidase activity.

[3] = tested on: polyol oxidase of the B strain; assay: Screening for oxidase activity, crude extract of B strain (peroxidase method, visual colour development); format: biochemical, B strain (filamentous fungus); conditions: substrate 0.5 M, room temperature
Protocol: as §1, §2, §3, §4, §5

[4] = tested on: D-glucose oxidase of the C strain; assay: Screening for oxidase activity, crude extract of C strain (peroxidase method, visual colour development); format: biochemical, Aspergillus niger (C strain); conditions: substrate 0.5 M, room temperature
Protocol: as §1, with “activity. […]” for “activity.”
as §3, with “specified. […]” for “specified.”
In this method, the activity is measured by colorimetric determination of hydrogen peroxide generated by an oxidation reaction. […] The oxidized ABTS develops a blue color, and therefore, by visual observation or measurement of absorbance at 420 nm, the oxidase activity can be detected. […]

SMILES | activity of the enzyme for the polyol (in words) [1] | Relative activity (%) [1] | reactivity as a substrate of the oxidase of the A strain [2] | reactivity as a substrate of the enzyme of the B strain [3] | reactivity as a substrate of the D-glucose oxidase of the C strain [4]
OC[C@@H](O)[C@@H](O)[C@@H](O)[C@@H](O)CO [Allitol] | low | 0.45% | does not show reactivity | uses all of D-sorbitol, D-mannitol, and allitol as a substrate | 
OC[C@@H](O)C(O)[C@H](O)CO [D-arabitol] | high | 100% |  |  | 
O=C[C@H](O)[C@@H](O)[C@H](O)[C@H](O)CO [D-glucose] |  |  |  |  | high substrate specificity for D-glucose
OC[C@@H](O)[C@@H](O)[C@H](O)[C@H](O)CO [D-mannitol] | high | 79.0% | uses D-sorbitol and D-mannitol as a substrate | uses all of D-sorbitol, D-mannitol, and allitol as a substrate | 
OC[C@@H](O)[C@@H](O)[C@H](O)[C@@H](O)CO [D-sorbitol] | high | 36.7% | uses D-sorbitol and D-mannitol as a substrate | uses all of D-sorbitol, D-mannitol, and allitol as a substrate | 
OC[C@@H](O)[C@H](O)[C@H](O)[C@H](O)CO [D-talitol] | low | 0.3% |  |  | 
OC[C@@H](O)[C@@H](O)CO [Erythritol] | high | 80.5% |  |  | 
OCC(O)CO [Glycerol] |  | 0.18% |  |  | 
OC[C@H](O)[C@H](O)[C@H](O)[C@@H](O)CO [L-talitol] |  | 0.3% |  |  | 
OC[C@@H](O)[C@@H](O)[C@@H](O)CO [Ribitol] | low |  |  |  | 
OC[C@@H](O)[C@H](O)[C@@H](O)CO [Xylitol] |  | 1.2% |  |  | 
